Assays:
1b (BK) NS5bΔ21 = 1b (BK) NS5bΔ21 (Hepatitis C virus genotype 1b (isolate BK) (HCV), UniProt P26663); experiment: HCV polymerase inhibition assay, genotype 1b; format: biochemical, HCV genotype 1b (BK); conditions: 1b (BK) NS5bΔ21, 33P-GTP incorporation; read-out: 1b polymerase IC50 (range class)
Procedure: HCV polymerase reactions were carried out using a modified method of Howe et al., Antimicrobial Agents and Chemotherapy 2004 48(12): 4813-4821. Reactions contained a final concentration of, 0.5% DMSO, 50 nM, 1b (BK) NS5bΔ21, 20 mM Tris-HCl pH 7.5, 5 mM MgCl2, 5 mM MnCl2, 3 mM DTT, 0.05% BSA, 0.2 U/μL RNasin, 10 μg/mL Poly(rC) template, GTP (at Km) and 0.05 μCi/μL ^33P-GTP in a total reaction volume of 50 μL. Compounds were tested in a three fold dilution series, for example starting from 50 μM. Reactions were initiated with the addition of GTP and terminated after 1 hour with 50 μL ice cold 0.2 M EDTA. Terminated reactions were transferred to DEAE 96-well filter plates, unincorporated nucleotides washed from the filters and 50 μL scintillation fluid added prior to reading on a scintillation counter. Similarly, a genotype 3a (VRL-69) NS5bΔ21 polymerase enzyme assay was conducted using essentially the same method.
The compound concentration that reduced ^33P-GTP incorporation by 50% (IC50) was calculated using non-linear regression.

[1] = test system: genotype 1b (Con 1) subgenomic replicon cell line; experiment: HCV replicon assay, genotype 1b (Renilla luciferase); format: cell-based, HCV genotype 1b (Con 1); conditions: Hepatitis C virus; genotype 1b replicon, 72 hours, luciferase; read-out: genotype 1b EC50 (range class)
Procedure: A genotype 1b (Con 1) subgenomic replicon cell line based on Blight et al., Science 2000 290: 1972-1974, modified to express a Renilla luciferase reporter gene was used to assess antiviral activity of test compounds. Cell cultures were maintained in a sub-confluent state in DMEM with glutamine, 10% heat-inactivated foetal bovine serum (FBS) and G418 (Geneticin®).
For assay, cells were seeded at a density of 7000 cells/well into 96 well tissue culture trays in culture media lacking G418. Compounds were tested in a three fold dilution series, for example starting from 50 uM. After 72 hours incubation at 37° C. and 5% CO2, Renilla luciferase activity was quantified via the Promega Renilla Luciferase or Renilla-Glo™ Luciferase Assay Systems (Promega corporation. The same method was employed for replicon assays using subgenomic genotype 1a and 2a replicon cell lines with a seeding cell density of 5000 cells/well for the 2a cell lines.
The compound concentration that reduced luciferase activity by 50% (EC50) was calculated using non-linear regression.

1b (BK) NS5bΔ21, sequence (P26663 2420-2989): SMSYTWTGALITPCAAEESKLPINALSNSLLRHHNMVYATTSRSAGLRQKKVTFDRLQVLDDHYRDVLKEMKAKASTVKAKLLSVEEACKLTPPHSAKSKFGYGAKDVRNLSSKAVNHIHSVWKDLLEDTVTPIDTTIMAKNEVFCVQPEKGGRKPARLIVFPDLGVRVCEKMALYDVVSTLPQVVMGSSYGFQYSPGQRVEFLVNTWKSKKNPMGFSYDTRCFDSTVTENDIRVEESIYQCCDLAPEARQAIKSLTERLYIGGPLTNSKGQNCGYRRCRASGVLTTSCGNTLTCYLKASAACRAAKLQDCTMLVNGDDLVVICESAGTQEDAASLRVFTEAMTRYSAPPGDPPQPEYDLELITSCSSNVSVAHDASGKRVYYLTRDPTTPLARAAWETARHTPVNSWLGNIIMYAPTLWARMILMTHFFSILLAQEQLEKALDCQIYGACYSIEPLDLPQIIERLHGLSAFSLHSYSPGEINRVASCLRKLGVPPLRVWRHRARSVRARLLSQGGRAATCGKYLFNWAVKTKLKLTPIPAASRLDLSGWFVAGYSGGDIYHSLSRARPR

| Structure (SMILES) | IC50 (1b (BK) NS5bΔ21) [nM] | EC50 [1] [nM] |
| --- | --- | --- |
| CNC(=O)c1c2cc(C3CC3)c(N(CCCC(=O)O)S(C)(=O)=O)cc2nn1-c1ccc(Br)cc1 [Compound 89, 4-{[2-(4-bromophenyl)-5-cyclopropyl-3-(methylcarbamoyl)-2H-indazol-6-yl](methylsulfonyl)amino}butanoic acid] | < 990 | 10000 to 50000 |
| CNC(=O)c1c2cc(C3CC3)c(N(CCC(=O)O)S(C)(=O)=O)cc2nn1-c1ccc(Br)cc1 [Compound 90, N-[2-(4-bromophenyl)-5-cyclopropyl-3-(methylcarbamoyl)-2H-indazol-6-yl]-N-(methylsulfonyl)-beta-alanine] | < 990 | 10000 to 50000 |
| CNC(=O)c1c2cc(C3CC3)c(N(CCC(=O)NC(C)C)S(C)(=O)=O)cc2nn1-c1ccc(Br)cc1 [Compound 91, 2-(4-bromophenyl)-5-cyclopropyl-N-methyl-6-((methylsulfonyl)[3-oxo-3-(propan-2-ylamino)propyl]amino)-2H-indazole-3-carboxamide] | 1000 to 9990 | 1000 to 9990 |
| CCC(C)OC(=O)CCCN(c1cc2nn(-c3ccc(Br)cc3)c(C(=O)NC)c2cc1C1CC1)S(C)(=O)=O (centres unmarked) [Compound 92, butan-2-yl 4-{[2-(4-bromophenyl)-5-cyclopropyl-3-(methylcarbamoyl)-2H-indazol-6-yl](methylsulfonyl)amino}butanoate] | < 990 | < 990 |
| CNC(=O)c1c2cc(C3CC3)c(N(CCCC(=O)Oc3ccccc3)S(C)(=O)=O)cc2nn1-c1ccc(Br)cc1 [Compound 93, phenyl 4-{[2-(4-bromophenyl)-5-cyclopropyl-3-(methylcarbamoyl)-2H-indazol-6-yl](methylsulfonyl)amino}butanoate] | < 990 | 1000 to 9990 |
| CNC(=O)c1c2cc(C3CC3)c(N(CCCC(=O)OCOC(=O)C(C)(C)C)S(C)(=O)=O)cc2nn1-c1ccc(Br)cc1 [Compound 94, [(2,2-dimethylpropanoyl)oxy]methyl 4-{[2-(4-bromophenyl)-5-cyclopropyl-3-(methylcarbamoyl)-2H-indazol-6-yl](methylsulfonyl)amino}butanoate] | < 990 | 1000 to 9990 |
| CNC(=O)c1c2cc(C3CC3)c(N(CCC(CO)CO)S(C)(=O)=O)cc2nn1-c1ccc(Br)cc1 [Compound 96, 2-(4-bromophenyl)-5-cyclopropyl-6-{[4-hydroxy-3-(hydroxymethyl)butyl] (methylsulfonyl)amino}-N-methyl-2H-indazole-3-carboxamide] | < 990 | < 990 |
| CNC(=O)c1c2cc(C3CC3)c(N(CCC3COC(=O)OC3)S(C)(=O)=O)cc2nn1-c1ccc(Br)cc1 [Compound 97, 2-(4-bromophenyl)-5-cyclopropyl-N-methyl-6-{(methylsulfonyl)[2-(2-oxo-1,3-dioxan-5-yl)-ethyl]amino}-2H-indazole-3-carboxamide] | < 990 | 1000 to 9990 |
| CNC(=O)c1c2cc(C3CC3)c(N(CCCS(C)(=O)=O)S(C)(=O)=O)cc2nn1-c1ccc(Br)cc1 [Compound 100, 2-(4-bromophenyl)-5-cyclopropyl-N-methyl-6-[methylsulfonyl(3-methylsulfonylpropyl)amino]-2H-indazole-3-carboxamide] | < 990 | < 990 |
| CNC(=O)c1c2cc(C3CC3)c(N(CCC[S+](C)[O-])S(C)(=O)=O)cc2nn1-c1ccc(Br)cc1 (centres unmarked) [Compound 101, 2-(4-bromophenyl)-5-cyclopropyl-N-methyl-6-[3-methylsulfinylpropyl(methylsulfonyl)amino]-2H-indazole-3-carboxamide] | < 990 | 1000 to 9990 |
| CNC(=O)c1c2cc(C3CC3)c(N(CCCS(N)(=O)=O)S(C)(=O)=O)cc2nn1-c1ccc(Br)cc1 [Compound 102, 2-(4-Bromophenyl)-5-cyclopropyl-N-methyl-6-[methylsulfonyl(3-sulfamoylpropyl)amino]-2H-indazole-3-carboxamide] | < 990 | 1000 to 9990 |
| CNC(=O)c1c2cc(C3CC3)c(N3CCN(C)S3(=O)=O)cc2nn1-c1ccc(Br)cc1 [Compound 104, 2-(4-bromophenyl)-5-cyclopropyl-N-methyl-6-(5-methyl-1,1-dioxido-1,2,5-thiadiazolidin-2-yl)-2H-indazole-3-carboxamide] | 10000 to 50000 | 1000 to 9990 |
| CNC(=O)c1c2cc(C3CC3)c(N3CCCC3=O)cc2nn1-c1ccc(NCC(C)C)cc1 [Compound 105, 5-cyclopropyl-N-methyl-2-{4-[(2-methylpropyl)amino]phenyl}-6-(2-oxopyrrolidin-1-yl)-2H-indazole-3-carboxamide] | 10000 to 50000 | 1000 to 9990 |
| CNC(=O)c1c2cc(C3CC3)c(N(CC(C)O)S(C)(=O)=O)cc2nn1-c1ccc(Br)cc1 (centres unmarked) [Compound 106, 2-(4-Bromophenyl)-5-cyclopropyl-6-[2-hydroxypropyl(methylsulfonyl)amino]-N-methyl-2H-indazole-3-carboxamide] | 1000 to 9990 | 1000 to 9990 |
| CNC(=O)c1c2cc(C3CC3)c(N(C3CCNCC3)S(C)(=O)=O)cc2nn1-c1ccc(Br)cc1 [Compound 107, 2-(4-bromophenyl)-5-cyclopropyl-N-methyl-6-[methylsulfonyl(piperidin-4-yl)-amino]-2H-indazole-3-carboxamide] | 1000 to 9990 | 1000 to 9990 |
| CNC(=O)c1c2cc(C3CC3)c(N(C3CCN(S(C)(=O)=O)CC3)S(C)(=O)=O)cc2nn1-c1ccc(Br)cc1 [Compound 108, 2-(4-bromophenyl)-5-cyclopropyl-N-methyl-6-[methylsulfonyl-(1-methylsulfonyl(piperidin-4-yl))amino]-2H-indazole-3-carboxamide] | < 990 | 1000 to 9990 |
